{"source": "patent US20180064679A1", "about": "“METHOD FOR TREATING CANCER BASED ON LEVEL OF GLUCOCORTICOID RECEPTOR” (Abraxis BioScience, LLC, priority 2015, published 2018)", "key": {"[1]": {"system": "SGK1", "test": "qRT-PCR of SGK1 mRNA in H1755 cells", "format": "cell-based, human", "settings": "100 nM DEX, H1755 cells, 1, 4 or 24 hours", "protocol": "(§1) H1755 and H522 cells were cultured using RPMI media that was charcoal-filtered media to remove steroids. Cell samples received one of the following treatments: vehicle control (0.1% EtOH for DEX vehicle control or 0.1% DMSO for PTX vehicle control), 100 nM DEX, 100 nM PTX, or 100 nM DEX and 100 nM PTX. At 1 hour, 4 hours, or 24 hours after drug administration, cell samples were harvested and mRNA levels of MKP-1 and SGK1 were measured via quantitative real-time polymerase chain reaction (qRT-PGR). Western blot analysis of GR, phosphorylated JNK1 (P-JNK1; phosphorylation at Thr 183 and Tyr 185), JNK1, phosphorylated c-Jun (P c-Jun; phosphorylation at Ser 73 or Ser 63), c-Jun, phosphorylated MKP1 (pMKP1; phosphorylated at Ser 359), SG1, phosphorylated MCL-1 (pMCL-1; phosphorylated at Ser 64), MCL-1, phosphorylated BCL2 (pBC1,2; phosphorylated at Ser 70), BCL2, BCLXL, cleaved caspase-3, and GAPDH (for purposes of normalization) was performed following treatment with either a vehicle control (0.1% EtOH for DEX vehicle control or 0.1% DMSO for PTX vehicle control), 100 nM DEX, 100 nM PTX, or 100 nM DEX and 100 nM PTX."}, "[2]": {"system": "MKP-1", "test": "qRT-PCR of MKP-1 mRNA in H1755 cells", "format": "cell-based, human", "settings": "100 nM DEX, H1755 cells, 1, 4 or 24 hours", "protocol": "as §1"}, "[3]": {"system": "MAP TAU", "test": "Western blot of MAP TAU in H1755 cells", "format": "cell-based, human", "protocol": "H1755 and H522 cells were analyzed by Western blot at 4 and 24 hours following administration of a vehicle control (0.1% EtOH for DEX vehicle control or 0.1% DMSO for PTX vehicle control), 100 nM DEX, 100 nM PTX, or 100 nM DEX and 100 nM PTX."}, "[4]": {"system": "H522 cell line", "test": "caspase-3/7 activation assay in H522 cell line", "format": "cell-based", "settings": "100 nM DEX, 100 nM PTX, H522 (minimal level of GR)"}, "[5]": {"system": "H1755 cells", "test": "caspase-3/7 activation (apoptosis) assay in H1755 cells", "format": "cell-based, human", "protocol": "H1755 cells were cultured using EMEM with 10% FBS. FBS was charcoal-filtered to remove endogenous steroids. Cells were plated at 5000 cell per well and treated 24 hours after plating. H1755 cell samples treated with DEX received DEX 30 minutes prior to administration of PTX or a vehicle control. Vehicle controls are the same as those discussed in Example 1. Additionally, during PTX and/or DEX drug dosing, a caspase-3/7 activation reagent was added to the cell samples, for example, Caspase-3/7 reagent (Essen BioScience, Ann Arbor, Mich; Catalog No. 4440). Specifically, the CELLPLAYER™ Kinetic Caspase-3/7 activation assay reagents (Essen BioScience, Ann Arbor, Mich.) were used to detect caspase-3/7 activation.\nAt time points following PTX administration the activation of the caspase-3/7 reagent was measured with, for example, an INCUCYTE™ FLR (Essen BioScience, Ann Arbor, Mich.). […] Apoptotic or apoptosing H1755 cells (caspase-3/7 positive cells) are indicated in white, as measured by caspase-3/7 activation (FIGS. 3A-3D).\nTo determine the EC50 of DEX in H1755 cells, a series of PTX concentrations were evaluated for caspase-3/7 activation across a series of DEX concentrations. […]\nH1755 cell samples were treated with 0, 0.43, 1.3, 4.12, 12.3, 37, 111, 333, 1000, or 3000 nM PTX. […] At time points following drug administration, caspase-3/7 activation was measured as discussed in Example 1."}, "[6]": {"system": "H23 cells", "test": "caspase-3/7 activation assay in H23 cells", "format": "cell-based", "settings": "H23 cells (low level of GR expression), data not shown"}, "[7]": {"system": "MCL1", "test": "Western blot of MCL1 and phosphorylated MCL1", "format": "cell-based", "settings": "100 nM PTX, 24 hours, H1755 and H522 cells", "protocol": "as §1\n(§2) Furthermore, pro-survival markers, MCL1, BCL2, and BCLXL, were measured by Western blot to evaluate changes following treatment with DEX, PTX, or DEX and PTX. MCL1, BCL2, and BCLXL inhibit apoptosis by blocking activation of caspases, such as, caspase-3. […]"}, "[8]": {"system": "BCLXL", "test": "Western blot of BCLXL in H1755 cells", "format": "cell-based, human", "settings": "100 nM PTX, 24 hours", "protocol": "as §1, §2"}, "[9]": {"system": "phosphorylated c-Jun (Ser 73)", "test": "Western blot of phosphorylated c-Jun (Ser 73) in H1755 cells", "format": "cell-based, human", "settings": "100 nM PTX, 4 hours", "protocol": "(§3) H1755 and H522 cells were cultured using RPMI media that was charcoal-filtered media to remove steroids. Cell samples received one of the following treatments: vehicle control (0.1% EtOH for DEX vehicle control or 0.1% DMSO for PTX vehicle control), 100 nM DEX, 100 nM PTX, or 100 nM DEX and 100 nM PTX. At 1 hour, 4 hours, or 24 hours after drug administration, cell samples were harvested and mRNA levels of MKP-1 and SGK1 were measured via quantitative real-time polymerase chain reaction (qRT-PGR). […]\n(§4) In addition to measuring MKP-1 and SGK1 mRNA expression, a series of proteins (and their phosphorylation status) involved in stress pathway signaling were evaluated via Western blot to measure changes following treatment with DEX, PTX, or DEX and PTX. JNK1 was measured after 2 hours of treatment, P c-Jun, c-Jun, pMPK1, and SGK1 were measured after 4 hours of treatment, and other measurements were after 24 hours of treatment. […]"}, "[10]": {"system": "phosphorylated BCL2", "test": "Western blot of phosphorylated BCL2 in H1755 cells", "format": "cell-based, human", "settings": "100 nM PTX, 24 hours", "protocol": "as §1, §2"}, "[11]": {"system": "BCLXL", "test": "Western blot of BCLXL in H522 cells", "format": "cell-based", "settings": "100 nM PTX, 24 hours", "protocol": "as §1, §2"}, "[12]": {"system": "cleaved caspase-3", "test": "Western blot of cleaved caspase-3 in H522 cells", "format": "cell-based", "settings": "100 nM PTX, 24 hours", "protocol": "as §1, §2"}, "[13]": {"system": "cleaved caspase-3", "test": "Western blot of cleaved caspase-3 in H1755 cells", "format": "cell-based, human", "settings": "100 nM PTX, 24 hours", "protocol": "as §1, §2"}, "[14]": {"system": "phosphorylated c-Jun (Ser 73)", "test": "Western blot of phosphorylated c-Jun (Ser 73) in H522 cells", "format": "cell-based", "settings": "100 nM PTX, 4 hours", "protocol": "as §3, §4"}, "[15]": {"system": "ERK, phosphorylated ERK, p38, and phosphorylated p38", "test": "Western blot of MAPK pathway proteins in H1755 and H522 cells", "format": "cell-based", "settings": "100 nM DEX and/or 100 nM PTX, 4 hours", "protocol": "H1755 and H522 cells were analyzed by Western blot at 4 hours following administration of a vehicle control (0.1% EtOH for DEX vehicle control or 0.1% DMSO for PTX vehicle control), 100 nM DEX, 100 nM PTX, or 100 nM DEX and 100 nM PTX."}, "[16]": {"system": "MDA-MB-231 cells", "test": "caspase-3/7 activation (apoptosis) assay in MDA-MB-231 cells", "format": "cell-based", "settings": "PTX 0-3000 nM alone, roughly 34.5 hours", "protocol": "MDA-MB-231 cells were cultured using Eagle's minimum essential medium (EMEM) with 10% fetal bovine serum (FBS). FBS was charcoal-filtered to remove endogenous steroids. Cells were plated at 5000 cell per well and treated 24 hours after plating. PTX doses of 3000, 1000, 333.3, 111.1, 37.0, 12.3, 4.1, 1.4, 0.5, and 0 nM were evaluated. MDA-MB-231 cell samples treated with DEX received 100 nM DEX 30 minutes prior to administration of PTX or a vehicle control. The vehicle control for DEX was 0.1% ethanol, final concentration after addition. The vehicle control for PTX was 0.1% DMSO, final concentration after addition. Additionally, during PTX and/or DEX drug dosing, a caspase-3/7 activation reagent was added to the cell samples, for example, Caspase-3/7 reagent (Essen BioScience, Ann Arbor, Mich.; Catalog No. 4440). Specifically, the CELLPLAYER™ Kinetic Caspase-3/7 activation assay reagents (Essen BioScience, Ann Arbor, Mich.) were used to detect caspase-3/7 activation.\nAt time points following PTX administration (e.g., roughly every 3 hours) the activation of the caspase-3/7 reagent was measured with, for example, an INCUCYTE™ FLR (Essen BioScience, Ann Arbor, Mich.). Activation of caspase-3/7 is indicative of an apoptotic and/or an apoptosing cell. All concentrations of PTX, both with and without DEX, were evaluated in triplicate."}}}
{"smiles": "C[C@@H]1C[C@H]2[C@@H]3CCC4=CC(=O)C=C[C@]4(C)[C@@]3(F)[C@@H](O)C[C@]2(C)[C@@]1(O)C(=O)CO", "note": "[DEX, dexamethasone]", "values": [{"measurement": "up-regulation of SGK1 mRNA by DEX, maximum", "setting": "[1]", "value": 2.5, "unit": "fold"}, {"measurement": "up-regulation of MKP-1 mRNA by DEX, maximum", "setting": "[2]", "value": 8, "unit": "fold"}, {"measurement": "increase of MAP TAU in cells treated with DEX and PTX", "setting": "[3]; 100 nM DEX and 100 nM PTX, 24 hours", "value": 2, "unit": "fold"}, {"measurement": "DEX-induced upregulation of MAP TAU", "setting": "[3]; 100 nM DEX, 24 hours after drug administration", "value": 5, "unit": "fold"}, {"measurement": "DEX antagonism of PTX-induced apoptosis", "setting": "[4]", "value": "no effect"}, {"measurement": "EC50", "setting": "[5]; Homo sapiens, NCI-H1755, caspase-3/7 activation, series of PTX and DEX concentrations", "value": 4, "unit": "nM"}, {"measurement": "DEX effect on PTX-induced apoptosis", "setting": "[6]", "value": "no effect"}]}
{"smiles": "CC(=O)O[C@H]1C(=O)[C@@]2(C)[C@H]([C@H](OC(=O)c3ccccc3)[C@]3(O)C[C@H](OC(=O)[C@H](O)[C@@H](NC(=O)c4ccccc4)c4ccccc4)C(C)=C1C3(C)C)[C@]1(OC(C)=O)CO[C@@H]1C[C@@H]2O", "note": "[PTX, paclitaxel]", "values": [{"measurement": "phosphorylation of MCL1", "setting": "[7]", "value": "up-regulated"}, {"measurement": "total expression of MCL1", "setting": "[7]", "value": "decreasing"}, {"measurement": "BCLXL expression", "setting": "[8]", "value": "down-regulated"}, {"measurement": "phosphorylation of c-Jun on Ser 73 following PTX treatment", "setting": "[9]", "value": "increased"}, {"measurement": "phosphorylation of BCL2", "setting": "[10]", "value": "up-regulated"}, {"measurement": "level of apoptosis (caspase-3/7 activation), PTX alone", "setting": "[5]; 111 nM PTX", "value": "marked increase in apoptosis"}, {"measurement": "BCLXL expression", "setting": "[11]", "value": "not H522 cells"}, {"measurement": "expression of cleaved caspase-3", "setting": "[12]", "value": "increases"}, {"measurement": "expression of cleaved caspase-3", "setting": "[13]", "value": "increases"}, {"measurement": "phosphorylation of c-Jun on Ser 73 following PTX treatment", "setting": "[14]", "value": "increased"}, {"measurement": "change of MAPK pathway proteins and MAPK signaling mechanisms", "setting": "[15]", "value": "minimally changed"}, {"measurement": "level of apoptosis (as measured by level of caspase-3/7 activation)", "setting": "[16]", "value": "higher concentrations of PTX induced increased levels of apoptosis"}]}
